Measured values published in article PMC9317670, “Temporal and Wash-Out Studies Identify Medicines for Malaria Venture Pathogen Box Compounds with Fast-Acting Activity against Both Trypanosoma cruzi and Trypanosoma brucei” (Microorganisms, 2022).
Where two headings read alike, the source gives them in different places.

How the values were obtained:
[1] = tested on: T.b. brucei bloodstream 427 strain parasites; assay: T.b. brucei 72 h REDOX-based (resazurin) viability assay; assay type: cell-based, Trypanosoma brucei brucei
[2] = tested on: T. cruzi Tulahuen strain parasites in 3T3 host cells; assay: T. cruzi 48 h image-based assay; assay type: cell-based, Trypanosoma cruzi
HEK293 cells = assay: HEK293 cytotoxicity assay; assay type: cell-based, human; conditions: HEK293, 72 h, NA = not active, highest dose 79 µM unless given
HEPG2 cells = assay: HEPG2 cytotoxicity assay; assay type: cell-based, human
T. cruzi [3] = assay: T. cruzi temporal image-based assay, 24 h exposure; assay type: cell-based, Trypanosoma cruzi; conditions: Trypanosoma cruzi; for IC50: read-out: IC50 24 h T. cruzi
T. cruzi [4] = assay: T. cruzi compound wash off assay (48 h with compound, wash off, 72 h without); assay type: cell-based, Trypanosoma cruzi; conditions: for Fold Change of IC50, wash off vs 48 h: IC50 from 48 h incubation to IC50 following wash off and further 72 h; for IC50: read-out: IC50 Wash Off
T.b. brucei [5] = assay: T.b. brucei temporal viability (time-kill) assay, 24 h, PrestoBlue; assay type: cell-based, Trypanosoma brucei brucei; conditions: Trypanosoma brucei; for IC50: read-out: IC50 24 h T.b. brucei
Experimental: Time-kill assays was undertaken as previously described, using the REDOX reagent PrestoBlue® [24]. […] Control compounds were added at the same concentrations at outlined for the resazurin-based assays.

T.b. brucei [6] = assay: T.b. brucei temporal viability (time-kill) assay, 48 h, PrestoBlue; assay type: cell-based, Trypanosoma brucei brucei; conditions: Trypanosoma brucei; for IC50: read-out: IC50 48 h T.b. brucei
T.b. rhodesiense STIB900 = T.b. rhodesiense STIB900 assay, 72 h; assay type: cell-based; conditions: Trypanosoma brucei; STIB900, 72 h; unit inferred; read-out: IC50 T. bR (T.b. rhodesiense)
T.b. gambiense STIB930 = T.b. gambiense STIB930 assay, 72 h; assay type: cell-based; conditions: Trypanosoma brucei, unit inferred, read-out: IC50 T. Bg STIB930 (T.b. gambiense)
T. cruzi and T.b. brucei = assay: Speed of action and cidality classification from temporal and wash off assays; assay type: cell-based, Trypanosoma cruzi, Trypanosoma brucei brucei; conditions: for Speed of Action (FA/SA): TC = T. cruzi, TBB = T.b. brucei; for Speed of Action (Table 5): prioritised compounds, Fast/Slow
[7] = molecular target: T. cruzi recombinant CYP51 (TcCYP51) (Trypanosoma cruzi, UniProt Q7Z1V1); assay: biochemical; conditions: criterion: IC50 within a log difference to posaconazole
Chain of T. cruzi recombinant CYP51 (TcCYP51) (Q7Z1V1 whole entry): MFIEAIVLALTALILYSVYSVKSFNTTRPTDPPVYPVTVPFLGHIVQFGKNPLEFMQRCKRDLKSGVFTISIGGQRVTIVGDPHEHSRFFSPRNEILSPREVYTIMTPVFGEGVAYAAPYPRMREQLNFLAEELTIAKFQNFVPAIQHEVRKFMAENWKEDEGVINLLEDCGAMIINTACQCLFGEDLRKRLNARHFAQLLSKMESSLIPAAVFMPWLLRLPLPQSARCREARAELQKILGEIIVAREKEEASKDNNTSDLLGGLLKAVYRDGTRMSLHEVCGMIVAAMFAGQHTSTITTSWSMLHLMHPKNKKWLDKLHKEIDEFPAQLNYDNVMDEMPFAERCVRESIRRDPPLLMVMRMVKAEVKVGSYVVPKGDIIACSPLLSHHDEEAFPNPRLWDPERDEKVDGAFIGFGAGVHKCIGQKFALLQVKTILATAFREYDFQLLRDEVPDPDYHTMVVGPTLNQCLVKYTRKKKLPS
Experimental: The inhibitory properties of compounds against T. cruzi recombinant CYP51 (TcCYP51) was determined using an in vitro assay as previously described [33, 41]. Compounds which inhibited T. cruzi in an image-based assay were tested against TcCYP51 in log concentrations (100, 33, 10, 3.3, 1.0, 0.33, 0.1 and 0 µM), with one replicate per dose, as previously described [41]. The control compound posaconazole was incubated at the same concentrations as the test compounds, over two replicates.
Of the fast-acting compounds, if there was more than one compound with activity against T. cruzi, one representative compound from each chemical class was selected. […] Slow-acting compounds were also tested for activity against TcCYP51. The criteria defining a compound with TcCYP51 activity required that the IC50 value was within a log difference to posaconazole, as previously reported [33].

[8] = dosed orally in mice; ref [51]; cited from earlier work
[9] = selectivity index in relation to HEK293 cells
[10] = selectivity index in relation to HEPG2 cells
[11] = selectivity index in relation to 3T3 host cells; highest dose 3T3 73 µM
[12] = Trypanosoma cruzi, TULAHUEN, 48 h; read-out: Emax % (T. cruzi) (converted)
[13] = Trypanosoma cruzi, TULAHUEN, 48 h; read-out: IC50 (T. cruzi)
[14] = NA = not active at given concentration
[15] = Trypanosoma cruzi, T. cruzi, 48 h incubation, wash off, further 72 h
[16] = read-out: Emax 24 h T.b. brucei (converted)
[17] = read-out: Emax 48 h T.b. brucei (converted)

Compound: CN(C)c1cc(NC(=O)Nc2ccccc2)c2ccccc2n1 [MMV 006901]
- Emax % (T.b. brucei) ([1]; 72 h): 99%
- IC50 ([1]; 72 h): 4.9 ± 0.0085 µM
- SI (T.b. brucei) HEK [1, 9]: 3.7
- SI (T.b. brucei) (HEP) [1, 10]: 1.8
- Emax % (T. cruzi) ([2]; 48 h): 100%
- IC50 ([2]; 48 h; read-out: IC50 (T. cruzi)): 1.2 ± 0.11 µM
- SI (T. cruzi) 3T3 [2, 11]: >60 ^4
- SI (T. cruzi) HEK [2, 9]: 15
- SI (T. cruzi) (HEP) [2, 10]: 7.1
- IC50 (HEK293 cells): 18 ± 0.81 µM
- IC50 (HEPG2 cells; HEPG2, 72 h, NA = not active, highest dose 79 µM unless given, read-out: IC50 (HEP) (converted)): 9.8 µM

Compound: Nc1nc2ccc(-c3cncc(Oc4ccc(F)cc4)c3)cc2[nH]1 [MMV 687248]
- SI (T.b. brucei) (HEP) [1]: 38
- SI (T.b. brucei) HEK [1]: > 155
- Emax ([1]; Trypanosoma brucei, 72 h): 99%
- IC50 ([1]; Trypanosoma brucei, 72 h): 0.51 ± 0.045 µM
- Emax ([2]; Trypanosoma cruzi, TULAHUEN, 48 h, read-out: Emax % (T. cruzi)): 99%
- IC50 ([2]; Trypanosoma cruzi, TULAHUEN, 48 h, read-out: IC50 (T. cruzi)): 1.5 ± 0.13 µM
- SI (T. cruzi) 3T3 [2, 11]: >49
- SI (T. cruzi) HEK [2, 9]: 53
- SI (T. cruzi) (HEP) [2, 10]: 13
- IC50 (HEPG2 cells; Homo sapiens, HepG2, 72 h, read-out: IC50 (HEP)): 19.6 µM
- IC50 (T. cruzi [3]): 4.1 ± 1.3 µM
- Fold Change of IC50, wash off vs 48 h (T. cruzi [4]; T. cruzi): 1.3 fold
- IC50 (T. cruzi [4]; Trypanosoma cruzi): 2 ± 0.039 µM
- Emax (T.b. brucei [5]; read-out: Emax 24 h T.b. brucei): 87%
- IC50 (T.b. brucei [5]): 0.93 ± 0.047 µM
- Emax (T.b. brucei [6]; read-out: Emax 48 h T.b. brucei): 99%
- IC50 (T.b. brucei [6]): 0.2 ± 0.032 µM
- IC50 (T.b. rhodesiense STIB900): 1.2 ± 0.54 µM
- IC50 (T.b. gambiense STIB930): 0.24 ± 0.022 µM
- Speed of Action (FA/SA) (T. cruzi and T.b. brucei): FA (Fast-acting (FA) = IC50 value can be determined following 24 h incubation, <10-fold difference in the IC50 value from 24 to 72 h)
- Speed of Action (Table 5) (T. cruzi and T.b. brucei): Fast

Compound: CCc1ccccc1-n1c(C)cn2c3c(=O)n(C(C(=O)OC)C(C)C)c(=O)n(C)c3nc12 (stereo not shown) [MMV 688550]
- Emax ([1]; Trypanosoma brucei, 72 h): 99%
- IC50 ([1]; Trypanosoma brucei, 72 h): 0.025 ± 0.00083 µM
- SI (T.b. brucei) HEK [1, 9]: >3160 (>3160)
- SI (T.b. brucei) (HEP) [1, 10]: >3160 (>3160)
- Emax [2, 12]: 100%
- IC50 [2, 13]: 0.53 ± 0.11 µM
- SI (T. cruzi) 3T3 [2, 11]: >138
- SI (T. cruzi) HEK [2, 9]: >149 (>149)
- SI (T. cruzi) (HEP) [2, 10]: >149 (>149)
- Emax (T. cruzi [3]): 80%
- IC50 (T. cruzi [3]; [14]): 0.9 ± 0.17 µM
- Fold Change of IC50, wash off vs 48 h (T. cruzi [4]; T. cruzi): 0.58 fold
- IC50 (T. cruzi [4]; [15]): 0.31 ± 0.067 µM
- Emax (T.b. brucei [5]; [16]): 100%
- IC50 (T.b. brucei [5]): 0.022 ± 0.014 µM
- Emax (T.b. brucei [6]; [17]): 99%
- IC50 (T.b. brucei [6]): 0.021 ± 0.00053 µM
- IC50 (T.b. rhodesiense STIB900): 0.08 ± 0.0014 µM
- IC50 (T.b. gambiense STIB930): < 0.001 µM
- Inhibition of TcCYP51 (in words) [7]: did not display activity
- Speed of Action (FA/SA) (T. cruzi and T.b. brucei): FA (Fast-acting (FA) = IC50 value can be determined following 24 h incubation, <10-fold difference in the IC50 value from 24 to 72 h)
- Speed of Action (Table 5) (T. cruzi and T.b. brucei): Fast

Compound: O=C(NCCc1ccn(-c2ccccc2)n1)C1CCCCC1 [MMV 688795]
- Emax ([1]; Trypanosoma brucei, 72 h): 99%
- IC50 ([1]; Trypanosoma brucei, 72 h): 0.13 ± 0.052 µM
- SI (T.b. brucei) HEK [1, 9]: >608 (>608)
- SI (T.b. brucei) (HEP) [1, 10]: >608 (>608)
- Emax [2, 12]: 100%
- IC50 [2, 13]: 0.58 ± 0.0503 µM
- SI (T. cruzi) 3T3 [2, 11]: >126
- SI (T. cruzi) HEK [2, 9]: >136 (>136)
- SI (T. cruzi) (HEP) [2, 10]: >136 (>136)
- Emax (T. cruzi [3]): 89%
- IC50 (T. cruzi [3]; [14]): 1.3 ± 0.12 µM
- Fold Change of IC50, wash off vs 48 h (T. cruzi [4]; T. cruzi): 0.74 fold
- IC50 (T. cruzi [4]; [15]): 0.38 ± 0.056 µM
- Emax (T.b. brucei [5]; [16]): 99%
- IC50 (T.b. brucei [5]): 0.29 ± 0.0047 µM
- Emax (T.b. brucei [6]; [17]): 99%
- IC50 (T.b. brucei [6]): 0.106 ± 0.02 µM
- IC50 (T.b. rhodesiense STIB900): 0.079 ± 0.0007 µM
- IC50 (T.b. gambiense STIB930): 0.63 ± 0.0014 µM
- Speed of Action (FA/SA) (T. cruzi and T.b. brucei): FA (Fast-acting (FA) = IC50 value can be determined following 24 h incubation, <10-fold difference in the IC50 value from 24 to 72 h)
- Speed of Action (Table 5) (T. cruzi and T.b. brucei): Fast

Compound: O=C(NCc1nnc2n1CCCCC2)c1ccc(-c2ccc(F)cc2)o1 [MMV 688796]
- Emax ([1]; Trypanosoma brucei, 72 h): 99%
- IC50 ([1]; Trypanosoma brucei, 72 h): 0.12 ± 0.023 µM
- SI (T.b. brucei) HEK [1, 9]: >658 (>658)
- SI (T.b. brucei) (HEP) [1, 10]: >658 (>658)
- Emax [2, 12]: 100%
- IC50 [2, 13]: 1.2 ± 0.4 µM
- SI (T. cruzi) 3T3 [2, 11]: >61
- SI (T. cruzi) HEK [2, 9]: >66 (>66)
- SI (T. cruzi) (HEP) [2, 10]: >66 (>66)
- Emax (T. cruzi [3]): 91%
- IC50 (T. cruzi [3]; [14]): 2.4 ± 1.3 µM
- Fold Change of IC50, wash off vs 48 h (T. cruzi [4]; T. cruzi): 1.1 fold
- Emax (T. cruzi [4]; [15]): 98%
- IC50 (T. cruzi [4]; [15]): 1.1 ± 0.48 µM
- Emax (T.b. brucei [5]; [16]): 82%
- IC50 (T.b. brucei [5]): 0.24 ± 0.053 µM
- Emax (T.b. brucei [6]; [17]): 100%
- IC50 (T.b. brucei [6]): 0.097 ± 0.0048 µM
- IC50 (T.b. rhodesiense STIB900): 0.046 ± 0.031 µM
- IC50 (T.b. gambiense STIB930): 0.16 ± 0.011 µM
- Speed of Action (FA/SA) (T. cruzi and T.b. brucei): FA (Fast-acting (FA) = IC50 value can be determined following 24 h incubation, <10-fold difference in the IC50 value from 24 to 72 h)
- Speed of Action (Table 5) (T. cruzi and T.b. brucei): Fast
- Half-life [8]: 3.9 h

Compound: N=C(N)c1ccc(OCCCCCOc2ccc(C(=N)N)cc2)cc1 [Pentamidine, reference compound]
- Emax ([1]; Trypanosoma brucei, 72 h): 100%
- IC50 ([1]; Trypanosoma brucei, 72 h): 0.0031 ± 0.0001 µM
- SI (T.b. brucei) HEK [1, 9]: >216
- IC50 HEK (HEK293 cells): NA at 0.67 µM (NT)
- Emax (T.b. brucei [5]; [16]): 99%
- IC50 (T.b. brucei [5]): 0.012 ± 0.0021 µM
- Emax (T.b. brucei [6]; [17]): 100%
- IC50 (T.b. brucei [6]): 0.0002 ± 2.1e-06 µM
- IC50 (T.b. gambiense STIB930): 0.003 ± 0.002 µM
- Speed of Action (FA/SA) (T. cruzi and T.b. brucei): FA (Fast-acting (FA) = IC50 value can be determined following 24 h incubation, <10-fold difference in the IC50 value from 24 to 72 h)

Compound: COc1ccc(C[C@H](N)C(=O)N[C@H]2[C@@H](O)[C@H](n3cnc4c(N(C)C)ncnc43)O[C@@H]2CO)cc1 [Puromycin, reference compound]
- Emax ([1]; Trypanosoma brucei, 72 h): 100%
- IC50 ([1]; Trypanosoma brucei, 72 h): 0.063 ± 0.00041 µM
- SI (T.b. brucei) HEK [1, 9]: 12
- SI (T.b. brucei) (HEP) [1, 10]: 4.0
- Emax [2, 12]: 100%
- IC50 [2, 13]: 5.6 ± 0.011 µM
- SI (T. cruzi) 3T3 [2, 11]: 1.2
- SI (T. cruzi) HEK [2, 9]: 0.13
- SI (T. cruzi) (HEP) [2, 10]: 0.044
- IC50 (HEK293 cells; Homo sapiens): 0.73 ± 0.27 µM
- IC50 (HEPG2 cells; Homo sapiens, HEPG2, 72 h, NA = not active, highest dose 79 µM unless given, read-out: IC50 (HEP) (converted)): 0.25 µM
- IC50 (T. cruzi [3]; [14]): 3.5 ± 0.44 µM
- Fold Change of IC50, wash off vs 48 h (T. cruzi [4]; T. cruzi): 0.50 fold
- IC50 (T. cruzi [4]; [15]): 2.8 ± 0.13 µM
- Emax (T.b. brucei [5]; [16]): 100%
- IC50 (T.b. brucei [5]): 0.096 ± 0.013 µM
- Emax (T.b. brucei [6]; [17]): 100%
- IC50 (T.b. brucei [6]): 0.097 ± 0.00042 µM
- Speed of Action (FA/SA) (T. cruzi and T.b. brucei): FA (Fast-acting (FA) = IC50 value can be determined following 24 h incubation, <10-fold difference in the IC50 value from 24 to 72 h)
